Results taken from patent publication US12479927B2, “Compounds comprising cleavable linker and uses thereof” (priority 2017, dated 2025).
Where two headings read alike, the source gives them in different places. Non-standard residues stand in square brackets, D forms with d. Residues, ends and D or L forms follow the SMILES beside them. Dolaproine = CO[C@@H]([C@@H]1CCCN1)[C@@H](C)C(=O)O; Dil = CC[C@H](C)[C@H](NC)[C@@H](CC(=O)O)OC; NMeV = CN[C@H](C(=O)O)C(C)C

Tests used:
[1] = target: T1, Escherichia coli β-glucuronidase (Escherichia coli, UniProt P05804); experiment: Enzymatic cleavage assay, Method 3; format: biochemical; conditions: Escherichia coli β-glucuronidase (Sigma G7396) in PBS buffer, PBS pH 7.4, 37° C., HPLC, read-out: TG release t1/2(min)
T1 construct: purchased Sigma G7396
Experimental: Method 3) Escherichia coli β-glucuronidase
The compounds A-1 and A-5 of the present invention were dissolved in DMSO, and mixed with PBS buffer solution to prepare a solution having a concentration of 500 μM (5% DMSO). MPS used as a standard material was prepared as a solution to have a concentration of 500 μM in PBS buffer solution. […] Then, 14 μL of enzyme solution (1 mg/mL) was added thereto, thereby preparing an enzyme reaction solution in a total amount of 700 μL. The reaction mixture was incubated at 37° C. Escherichia coli β-glucuronidase enzyme (Sigma G7396) was used in the reaction mixture.

[2] = Plasma stability test, mouse; format: in vitro ADME; conditions: 37° C., up to 7 days, 300 μM
Experimental: (§1) The compound A-1 obtained in Example 58 and MPS used as a standard material were dissolved in DMSO to make a concentration of 60 mM. Then, each of human plasma (Biochemed 752R-SC-PMG), mouse plasma (Biochemed 029-APSC-MP), rat plasma (Biochemed 031-APSC-MP), and beagle dog plasma (Biochemed 013-APSC-MP) were mixed with the compound and MPS to make a final concentration of 300 μM (final 0.5% DMSO). The resulting plasma mixtures were incubated at 37° C. water bath. Aliquots were taken before the reaction and on 1 day, 2 days, 4 days, and 7 days after the reaction, wherein each aliquot was 300 μL. To complete the reaction, two-fold volumes of acetonitrile was added, followed by brief vortexing, and centrifugation for plasma protein precipitation. Each supernatant obtained after centrifugation was collected and analyzed by HPLC. The compound A-1 was detected and quantitated in the mouse, rat, beagle dog, and human plasma for up to 7 days (>95%).

[3] = Plasma stability test, rat; format: in vitro ADME; conditions: 37° C., up to 7 days, 300 μM
Experimental: as §1

[4] = Plasma stability test, dog; format: in vitro ADME; conditions: beagle dog plasma, 37° C., up to 7 days, 300 μM
Experimental: as §1

[5] = Plasma stability test, human; format: in vitro ADME; conditions: 37° C., up to 7 days, 300 μM
Experimental: as §1

[6] = Chemical stability in PBS; format: physicochemical; conditions: PBS (pH 7.4), room temperature, light blocked, 7 days incubation
Experimental: The compound A-1 obtained by Example 58 was dissolved in DMSO, and mixed with PBS (pH 7.4) buffer solution to prepare a solution having a concentration of 500 μM (5% DMSO). MPS used as a standard material was prepared as a solution to have a concentration of 500 μM in PBS buffer solution. 420 μL of the buffer solution, and 140 μL of the compound A-1 solution and 140 μL of MPS solution were mixed, thereby preparing a reaction mixture in a total amount of 700 μL. The reaction mixture was incubated at room temperature while blocking the light. The reaction mixture was aliquoted on 0 day before the reaction and on 1 day, 2 days, 4 days, and 7 days after the reaction, wherein each aliquot amount was 70 μL. Then, the remaining compound A-1, MPS, and liberated tyrosine were quantitated by HPLC analysis.

Human β-galactosidase = target: T2, Human β-galactosidase (Homo sapiens, UniProt P16278); experiment: Enzymatic cleavage assay, Method 2; format: biochemical; conditions: recombinant enzyme; for Q part release t1/2(min): 100 μM
T2 construct: purchased R&D 6464-GH-020
T2 sequence (P16278 29-677): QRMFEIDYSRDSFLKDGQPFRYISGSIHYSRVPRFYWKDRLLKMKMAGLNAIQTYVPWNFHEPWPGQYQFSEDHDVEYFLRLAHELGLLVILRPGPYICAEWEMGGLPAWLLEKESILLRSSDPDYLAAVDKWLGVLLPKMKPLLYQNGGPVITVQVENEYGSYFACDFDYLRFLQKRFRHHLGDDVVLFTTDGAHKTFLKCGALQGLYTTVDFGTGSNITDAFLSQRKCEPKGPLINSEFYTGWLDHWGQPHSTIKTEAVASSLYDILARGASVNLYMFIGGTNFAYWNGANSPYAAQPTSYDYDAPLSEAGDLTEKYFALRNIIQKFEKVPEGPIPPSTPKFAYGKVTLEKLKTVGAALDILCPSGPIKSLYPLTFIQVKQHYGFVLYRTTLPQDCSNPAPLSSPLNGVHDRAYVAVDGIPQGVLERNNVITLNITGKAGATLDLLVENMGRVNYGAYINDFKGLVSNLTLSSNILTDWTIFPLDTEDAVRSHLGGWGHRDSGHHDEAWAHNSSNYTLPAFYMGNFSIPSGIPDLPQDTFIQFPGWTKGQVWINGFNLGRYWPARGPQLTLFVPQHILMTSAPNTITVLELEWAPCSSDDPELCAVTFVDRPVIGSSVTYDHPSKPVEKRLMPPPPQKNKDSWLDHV
Experimental: Method 2) Human β-galactosidase
MPS used as a standard material was prepared as a solution to have a concentration of 500 μM in PBS buffer solution. […] Then, 140 μL of 0.1 mg/mL enzyme solution was added thereto, thereby preparing an enzyme reaction solution in a total amount of 700 μL. The reaction mixture was incubated at 37° C. Human β-galactosidase enzyme (R&D 6464-GH-020) was used in the reaction mixture.

[7] = target: Escherichia coli β-galactosidase (Escherichia coli, UniProt P00722); experiment: in vitro; conditions: recombinant enzyme
Experimental: Method 1. Escherichia coli β-galactosidase
MPS used as a standard material was dissolved in PBS buffer solution to make 500 uM solution. […] This was followed by the addition of enzyme solution (14 μL of 1 mg/mL). When comparing with human β-galactosidase, 21 μL of enzyme solution (1 mg/mL) was added to achieve the same molar concentration, and the compound of the present invention and MPS each having an amount of 140 μL and […] of the buffer solution (pH 7.4) were mixed. The resulting reaction mixture was incubated at 37° C. Escherichia coli β-galactosidase enzyme (Sigma G4155) was used in the reaction mixture. The enzyme reaction solution was aliquoted at 0 min before the reaction and at a predetermined time after the reaction, respectively, wherein each aliquot was 70 μL. Then, the remaining compound of the present invention or MPS, and a material liberated by the enzyme reaction were quantitatively analyzed by HPLC.

[8] = tested on: Escherichia coli β-galactosidase + β-glucuronidase; experiment: Enzymatic cleavage assay, Method 4; format: biochemical; conditions: PBS pH 7.4, 37° C., HPLC, read-out: TG release t1/2(min)
Experimental: Method 4 Escherichia coli β-Galactosidase+β-Glucuronidase
The compound A-5 of the present invention was dissolved in DMSO, and mixed with PBS buffer solution to prepare a solution having a concentration of 500 μM (5% DMSO). MPS used as a standard material was prepared as a solution to have a concentration of 500 μM in PBS buffer solution. […] Then, 14 μL of 1 mg/mL of β-galactosidase (Sigma G4155) and 14 μL of 1 mg/mL of β-glucuronidase (Sigma G7396) were added thereto, thereby preparing an enzyme reaction mixture in a total amount of 700 μL. The reaction mixture was incubated at 37° C.

KB cancer cells [9] = experiment: cells; format: cell-based; conditions: MTT; 72 hours, 96 hours, or 144 hours of incubation; read-out: KB cell IC50
Experimental: KB cancer cells were collected and seeded in 24-well plates at a density of 30,000 cells per well in 2 mL of medium, and cultured for 24 hours. Then, the serial dilutions of compound C-1 obtained in Example 108 were treated from 30 nM to 0.0096 nM, the serial dilutions of compound C-2 obtained in Example 109 were treated from 1000 nM to 0.32 nM, serial dilutions of the compound C-3 obtained in Example 110 and the compound C-7 obtained in Example 114 were treated from 25 nM to 0.0016 nM, and serial dilutions of the drug MMAF-OMe were treated from 10 nM to 0.0097 nM. The serial dilutions of compounds C-5 and C-6 obtained in Example 112 and Example 113 were treated from 100 nM to 0.0001 nM, and the serial dilutions of drug seco-DUBA were treated from 100 nM to 0.001 nM. Serial dilutions of the compounds C-4 and C-9 obtained in Example 111 and Example 116 were treated from 1000 nM to 0.001 nM, and the serial dilutions of drug CBI dimer were treated by from 10 nM to 0.00001 nM. Serial dilutions of the compound C-8 obtained in Example 115 and the drug CBI-indole were treated from 100 nM to 0.0001 nM. After 72 hours, 96 hours, or 144 hours of incubation, 0.2 mL of 3-(4,5-dimethylthiazol-2-yl)-2,5-diphenyltetrazolium bromide (MTT) dye, dissolved in PBS buffer solution (5 mg/mL), was added to each well of the plates. The formazans formed by reduction of the MTT dye by mitochondrial oxidoreductases in the living cells were dissolved in DMSO, and measured using the absorbance at 550 nm.

KB cancer cells [10] = experiment: In vitro analysis of protein-drug conjugate, KB; format: cell-based; conditions: 96 hours, read-out: KB cell IC50
Experimental: (§2) KB cancer cells were collected and seeded in 24-well plates at a density of 30,000 cells per well in 2 mL of medium, and cultured for 24 hours. Then, the serial dilutions of compound C-1 obtained in Example 108 were treated from 30 nM to 0.0096 nM, the serial dilutions of compound C-2 obtained in Example 109 were treated from 1000 nM to 0.32 nM, serial dilutions of the compound C-3 obtained in Example 110 and the compound C-7 obtained in Example 114 were treated from 25 nM to 0.0016 nM, and serial dilutions of the drug MMAF-OMe were treated from 10 nM to 0.0097 nM. The serial dilutions of compounds C-5 and C-6 obtained in Example 112 and Example 113 were treated from 100 nM to 0.0001 nM, and the serial dilutions of drug seco-DUBA were treated from 100 nM to 0.001 nM. […] The formazans formed by reduction of the MTT dye by mitochondrial oxidoreductases in the living cells were dissolved in DMSO, and measured using the absorbance at 550 nm.
(§3) KB, SKBR-3, BT-474, NCI-N87 cancer cells were seeded in 96-well plates at a density of 2,000 to 8,000 cells per well in 100 μL of medium, and cultured for 24 hours. […] Experiments were performed in a similar manner to Test Example 3 to quantify living cells 96 hours later, and results are shown in Tables 4 and 5 below.

SKBR-3 cancer cells = experiment: In vitro analysis of antibody-drug conjugate, SKBR-3; format: cell-based; conditions: 96 hours
Experimental: as §2, §3

BT-474 cancer cells = experiment: In vitro analysis of antibody-drug conjugate, BT-474; format: cell-based; conditions: 96 hours
Experimental: as §2, §3

NCI-N87 cancer cells = experiment: In vitro analysis of antibody-drug conjugate, NCI-N87; format: cell-based; conditions: 96 hours
Experimental: as §2, §3

NCI-N87 cells = experiment: In vivo efficacy, tumor xenograft; parameters: species or system mice; conditions: male BALB/c nu/nu, single i.v. injection day 0, 2 mg/kg
Experimental: In vivo efficacy of antibody-drug conjugates of the invention was measured by tumor xenograft studies in mice. Male BALB/c nu/nu were injected subcutaneously in the right flank with suspensions of 1×10^6 of NCI-N87 cells respectively in PBS. Mice were randomized into study groups when tumors reached approximately 100 mm^3. T-DM1 (2 mg/kg), D-1-AB, D-2-AB, D-8-AB, and D-18-AB conjugates (0.5 mg/kg or 2 mg/kg) were given i.v. (single injection on treatment day 0). All treatment groups consisted of 6 to 10 animals per group, and tumor size was monitored twice weekly using caliper measurement. The tumor mass was calculated as volume=(width×width×length)/2.

Sequence of Escherichia coli β-galactosidase (P00722 2-1024): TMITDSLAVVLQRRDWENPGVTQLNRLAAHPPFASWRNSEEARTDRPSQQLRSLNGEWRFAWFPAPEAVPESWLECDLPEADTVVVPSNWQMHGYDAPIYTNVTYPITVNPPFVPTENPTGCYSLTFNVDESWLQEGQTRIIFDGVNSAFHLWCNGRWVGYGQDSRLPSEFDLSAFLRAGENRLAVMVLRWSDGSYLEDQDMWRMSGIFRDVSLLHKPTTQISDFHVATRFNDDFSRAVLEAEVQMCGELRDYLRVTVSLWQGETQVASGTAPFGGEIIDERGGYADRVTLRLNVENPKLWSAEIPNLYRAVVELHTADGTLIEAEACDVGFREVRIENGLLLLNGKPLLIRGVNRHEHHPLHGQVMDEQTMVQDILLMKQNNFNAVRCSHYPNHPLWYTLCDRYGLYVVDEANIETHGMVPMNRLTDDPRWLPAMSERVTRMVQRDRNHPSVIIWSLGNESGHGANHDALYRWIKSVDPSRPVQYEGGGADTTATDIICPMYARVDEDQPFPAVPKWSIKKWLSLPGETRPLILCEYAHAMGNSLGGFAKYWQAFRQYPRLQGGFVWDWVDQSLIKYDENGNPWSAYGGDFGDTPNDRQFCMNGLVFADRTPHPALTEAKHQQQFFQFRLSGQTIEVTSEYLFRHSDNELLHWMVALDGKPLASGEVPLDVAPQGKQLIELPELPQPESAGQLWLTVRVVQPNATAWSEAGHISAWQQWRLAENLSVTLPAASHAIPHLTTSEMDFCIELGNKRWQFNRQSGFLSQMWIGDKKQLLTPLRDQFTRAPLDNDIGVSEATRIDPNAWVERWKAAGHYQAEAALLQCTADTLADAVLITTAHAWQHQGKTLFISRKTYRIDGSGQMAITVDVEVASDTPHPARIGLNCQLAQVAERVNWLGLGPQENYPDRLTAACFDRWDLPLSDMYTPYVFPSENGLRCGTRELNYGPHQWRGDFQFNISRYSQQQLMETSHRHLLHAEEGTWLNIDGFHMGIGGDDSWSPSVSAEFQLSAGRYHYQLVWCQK
T1 sequence (P05804 whole entry): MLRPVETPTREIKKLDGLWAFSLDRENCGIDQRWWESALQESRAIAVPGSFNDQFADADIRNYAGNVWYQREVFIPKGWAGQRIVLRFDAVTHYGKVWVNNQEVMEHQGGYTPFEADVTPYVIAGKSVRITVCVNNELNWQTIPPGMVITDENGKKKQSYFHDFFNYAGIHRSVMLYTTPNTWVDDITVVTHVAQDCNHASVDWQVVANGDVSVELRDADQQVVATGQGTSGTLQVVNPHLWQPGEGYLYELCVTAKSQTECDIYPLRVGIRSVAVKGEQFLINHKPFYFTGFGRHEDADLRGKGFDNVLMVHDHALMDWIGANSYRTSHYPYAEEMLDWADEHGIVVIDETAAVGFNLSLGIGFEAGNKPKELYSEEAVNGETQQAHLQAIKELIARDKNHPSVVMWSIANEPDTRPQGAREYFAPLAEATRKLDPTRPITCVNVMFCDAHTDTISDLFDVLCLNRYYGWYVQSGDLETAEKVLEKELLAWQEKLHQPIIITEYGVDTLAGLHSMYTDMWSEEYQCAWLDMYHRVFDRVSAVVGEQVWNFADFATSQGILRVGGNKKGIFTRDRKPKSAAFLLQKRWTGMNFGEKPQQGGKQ

CC(C)(C)OC(=O)NC(Cc1ccc(OS(=O)(=O)Oc2ccccc2O[C@@H]2O[C@H](CO)[C@H](O)[C@H](O)[C@H]2O)cc1)C(=O)O (stereo partly shown) [Compound A-1]
half-life at 100 μM [1]: 0.43 ± 0.11 min | compound detected and quantitated in plasma [2]: > 95% | compound detected and quantitated in plasma [3]: > 95% | compound detected and quantitated in plasma [4]: > 95% | compound detected and quantitated in plasma [5]: > 95% | compound present (remaining) [6]: > 95%

CC(C)(C)OC(=O)NC(Cc1ccc(OS(=O)(=O)Oc2ccccc2O[C@@H]2O[C@H](C(=O)O)[C@@H](O)[C@H](O)[C@H]2O)cc1)C(=O)O (stereo partly shown) [Compound A-3]
half-life at 100 μM (Human β-galactosidase; Method 2, pH 7.4, 37° C., HPLC, read-out: TG release t1/2(min)): 10.7 min

CC(C)(C)OC(=O)N[C@H](Cc1ccc(OS(=O)(=O)Oc2ccccc2O[C@@H]2O[C@H](COC3O[C@H](C(=O)O)[C@@H](O)[C@H](O)[C@H]3O)[C@H](O)[C@H](O)[C@H]2O)cc1)C(=O)O (stereo partly shown) [Compound A-5]
half-life at 100 μM ([7]; pH 7.4): < 5 min | half-life at 100 μM [1]: < 5 min | half-life at 100 μM [8]: < 5 min

CCc1c2c(nc3ccc(OS(=O)(=O)Oc4cc(C(=O)NCCOCCOCCOCCN=[N+]=[N-])ccc4O[C@@H]4O[C@H](CO)[C@H](O)[C@H](O)[C@H]4O)cc13)-c1cc3c(c(=O)n1C2)COC(=O)[C@]3(O)CC [Compound B-2]
half-life at 100 μM ([7]; pH 5): 5.75 min | half-life at 100 μM ([7]; pH 7.4): 0.28 min | Q part release t1/2(min) (Human β-galactosidase; pH 5): 39.41 min | Q part release t1/2(min) (Human β-galactosidase; pH 7.4): 112.2 min | half-life at 100 μM (Human β-galactosidase; pH 5): 5.33 min

CC[C@H](C)[C@@H]([C@@H](CC(=O)N1CCC[C@H]1[C@H](OC)[C@@H](C)C(=O)N[C@@H](Cc1ccccc1)C(=O)OC)OC)N(C)C(=O)[C@@H](NC(=O)[C@@H](NC)C(C)C)C(C)C [MMAF-OMe] (H-[NMeV]V[Dil][Dolaproine]F-OMe)
IC50 (KB cancer cells [9]): 0.35 ± 0.07 nM | IC50 (KB cancer cells [10]; values marked * (asterisk not explained)): 0.16 nM | IC50 (KB cancer cells [10]; values without asterisk): 0.44 nM

T-DM1
IC50 (SKBR-3 cancer cells): 0.02 nM | IC50 (BT-474 cancer cells): 0.18 nM | IC50 (NCI-N87 cancer cells): 0.02 nM | activity compared with the conjugates of the invention (NCI-N87 cells): less active
